Target: T1, human PDE9A2 (Homo sapiens, UniProt O76083)
T1 construct: made in house; host or cells: Sf9 insect cells (infected; crude lysate used as enzyme source)
Assay: PDE9A2 enzymatic activity assay (scintillation proximity assay)
Assay type: biochemical
Conditions: for IC50: specific IC50 value is within the given range
Description: The PDE9A2 enzymatic activity assay was run as scintillation proximity assay (SPA), in general according to the protocol of the manufacturer (Amersham Biosciences, product number: TRKQ 7100).
As enzyme source, lysate (PBS with 1% Triton X-100 supplemented with protease inhibitors, cell debris removed by centrifugation at 13.000 rpm for 30 min) of SF 9 cell expressing the human PDE9A2 was used. The total protein amount included in the assay varied upon infection and production efficacy of the SF9 cells and lay in the range of 0.1-100 ng.
In general, the assay conditions were as follows: • total assay volume: 40 microliter • protein amount: 0.1-50 ng • substrate concentration (cGMP): 20 nanomolar; ˜1 mCi/1 • incubation time: 60 min at room temperature • final DMSO concentration: 0.2-1
The assays were run in 384-well format. The test reagents as well as the enzyme and the substrate were diluted in assay buffer. The assay buffer contained 50 mM Tris, 8.3 mM MgCl2, 1.7 mM EGTA, 0.1% BSA, 0.05% Tween 20; the pH of assay buffer was adjusted to 7.5. The reaction was stopped by applying a PDE9 specific inhibitor (e.g. compounds according to WO04099210 or WO04099211) in excess.
The activity of the positive control (minus the negative control=background) is set to 100% and activity in the presence of test compound is expressed relative to these 100%. Within this setting, an inhibition above 100% might be possible due to the nature of the variation of the positive control within the assay. In the following inhibition of PDE 9A2 is presented for a concentration at 10 μM, if not indicated otherwise.
IC50 can be calculated with GraphPadPrism or other suited software setting the positive control as 100 and the negative control as 0. For calculation of IC50 dilutions of the test compounds (substrates) are to be selected and tested following the aforementioned protocol.

[1] = read-out: % Inhibition of PDE 9A2

T1 sequence (O76083 1-533 isoform O76083-2): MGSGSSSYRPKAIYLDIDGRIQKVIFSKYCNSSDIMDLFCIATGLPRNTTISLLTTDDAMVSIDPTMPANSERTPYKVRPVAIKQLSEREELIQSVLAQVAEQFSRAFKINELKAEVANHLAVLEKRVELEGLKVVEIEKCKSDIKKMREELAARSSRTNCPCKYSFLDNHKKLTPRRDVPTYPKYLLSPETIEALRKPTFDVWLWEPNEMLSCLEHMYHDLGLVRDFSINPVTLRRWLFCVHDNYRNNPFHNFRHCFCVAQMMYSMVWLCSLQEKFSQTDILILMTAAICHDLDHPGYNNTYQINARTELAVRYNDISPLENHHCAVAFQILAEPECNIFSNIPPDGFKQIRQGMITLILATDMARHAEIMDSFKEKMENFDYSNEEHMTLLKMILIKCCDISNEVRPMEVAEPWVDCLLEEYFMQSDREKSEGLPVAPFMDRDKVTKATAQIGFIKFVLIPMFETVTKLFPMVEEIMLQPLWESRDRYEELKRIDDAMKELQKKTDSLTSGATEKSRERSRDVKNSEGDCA

| SMILES | inhibition at 10 µM [1] [%] | IC50 [nM] | inhibition at 1 µM (at 1 μM, read-out: % Inhibition of PDE 9A2) [%] |
| --- | --- | --- | --- |
| COc1cccc(Cl)c1Cc1nc2c(cnn2C2CCC(F)(F)CC2)c(=O)[nH]1 [Example 37] | 97 | 1 to 100 | – |
| O=C(O)Cc1ccccc1Cc1nc2c(cnn2C2CCC(F)(F)CC2)c(=O)[nH]1 [Example 38] | 85 | 101 to 1500 | – |
| CC(Cc1nc2c(cnn2C2CCC(F)(F)CC2)c(=O)[nH]1)C(=O)N1CCCCC1 (centres unmarked) [Example 39] | 84 | 101 to 1500 | – |
| O=c1[nH]c(Cc2ccc(F)cc2Br)nc2c1cnn2C1CCC(F)(F)CC1 [Example 44] | 92 | 101 to 1500 | – |
| O=c1[nH]c(Cc2cc(F)ccc2Br)nc2c1cnn2C1CCC(F)(F)CC1 [Example 45] | 97 | 1 to 100 | – |
| O=c1[nH]c(Cc2ncccc2Br)nc2c1cnn2C1CCC(F)(F)CC1 [Example 46] | 98 | 1 to 100 | – |
| COc1ccccc1Cc1nc2c(cnn2C2CCC(F)(F)CC2)c(=O)[nH]1 [Example 48-3] | 95 | 1 to 100 | – |
| COc1ccc(F)cc1Cc1nc2c(cnn2C2CCC(F)(F)CC2)c(=O)[nH]1 [Example 48-4] | 99 | 1 to 100 | – |
| COc1cncc(-c2ccccc2Cc2nc3c(cnn3C3CCC(F)(F)CC3)c(=O)[nH]2)c1 [Example 53] | 100 | 1 to 100 | – |
| N#Cc1ccc(-c2ccccc2Cc2nc3c(cnn3C3CCC(F)(F)CC3)c(=O)[nH]2)cn1 [Example 54] | 102 | 1 to 100 | – |
| COc1cc(-c2ccccc2Cc2nc3c(cnn3C3CCC(F)(F)CC3)c(=O)[nH]2)ccn1 [Example 55] | 100 | 1 to 100 | – |
| COc1ccc(-c2ccccc2Cc2nc3c(cnn3C3CCC(F)(F)CC3)c(=O)[nH]2)cn1 [Example 56] | 99 | 1 to 100 | – |
| N#Cc1ccc(-c2ccc(F)cc2Cc2nc3c(cnn3C3CCC(F)(F)CC3)c(=O)[nH]2)cn1 [Example 57] | 101 | 1 to 100 | – |
| COc1cncc(-c2ccc(F)cc2Cc2nc3c(cnn3C3CCC(F)(F)CC3)c(=O)[nH]2)c1 [Example 58] | 101 | 1 to 100 | – |
| COc1cc(-c2cc(F)ccc2Cc2nc3c(cnn3C3CCC(F)(F)CC3)c(=O)[nH]2)ccn1 [Example 59] | 95 | 101 to 1500 | – |
| NC(=O)c1ccc(-c2ccc(F)cc2Cc2nc3c(cnn3C3CCC(F)(F)CC3)c(=O)[nH]2)cn1 [Example 61] | 99 | 1 to 100 | – |
| NC(=O)c1ccc(-c2cc(F)ccc2Cc2nc3c(cnn3C3CCC(F)(F)CC3)c(=O)[nH]2)cn1 [Example 62] | 100 | 1 to 100 | – |
| N#Cc1ccc(-c2cc(F)ccc2Cc2nc3c(cnn3C3CCC(F)(F)CC3)c(=O)[nH]2)cn1 [Example 63] | 93 | 101 to 1500 | – |
| COc1cc(-c2ccc(F)cc2Cc2nc3c(cnn3C3CCC(F)(F)CC3)c(=O)[nH]2)ccn1 [Example 64] | 97 | 1 to 100 | – |
| COc1ccc(-c2ccc(F)cc2Cc2nc3c(cnn3C3CCC(F)(F)CC3)c(=O)[nH]2)cn1 [Example 65] | 101 | 1 to 100 | – |
| O=c1[nH]c(Cc2cc(F)ccc2-c2cccnc2)nc2c1cnn2C1CCC(F)(F)CC1 [Example 66] | 100 | 1 to 100 | – |
| COc1cncc(-c2cc(F)ccc2Cc2nc3c(cnn3C3CCC(F)(F)CC3)c(=O)[nH]2)c1 [Example 67] | 99 | 1 to 100 | – |
| COc1ccc(-c2cc(F)ccc2Cc2nc3c(cnn3C3CCC(F)(F)CC3)c(=O)[nH]2)cc1 [Example 68] | 96 | 101 to 1500 | – |
| COc1ccc(-c2cc(F)ccc2Cc2nc3c(cnn3C3CCC(F)(F)CC3)c(=O)[nH]2)cn1 [Example 69] | 97 | 101 to 1500 | – |
| O=c1[nH]c(Cc2cc(F)ccc2-c2ccncc2)nc2c1cnn2C1CCC(F)(F)CC1 [Example 70] | 100 | 1 to 100 | – |
| O=c1[nH]c(Cc2ccc(F)cc2-c2cccnc2)nc2c1cnn2C1CCC(F)(F)CC1 [Example 71] | 98 | 1 to 100 | – |
| Cn1nccc1-c1ccc(F)cc1Cc1nc2c(cnn2C2CCC(F)(F)CC2)c(=O)[nH]1 [Example 72-2] | 98 | 1 to 100 | – |
| Cn1cc(-c2ccc(F)cc2Cc2nc3c(cnn3C3CCC(F)(F)CC3)c(=O)[nH]2)cn1 [Example 72-3] | 98 | 1 to 100 | – |

| SMILES | inhibition at 10 µM [1] [%] | IC50 [nM] | inhibition at 1 µM (at 1 μM, read-out: % Inhibition of PDE 9A2) [%] |
| --- | --- | --- | --- |
| O=c1[nH]c(Cc2cc(F)ccc2-c2ccnc(F)c2)nc2c1cnn2C1CCC(F)(F)CC1 [Example 72-4] | 101 | 1 to 100 | – |
| COc1ccc(-c2ccc(F)cc2Cc2nc3c(cnn3C3CCC(F)(F)CC3)c(=O)[nH]2)cc1 [Example 72-5] | 99 | 1 to 100 | – |
| N#Cc1ccc(-c2ccc(F)cc2Cc2nc3c(cnn3C3CCC(F)(F)CC3)c(=O)[nH]2)cc1 [Example 72-6] | – | 1 to 100 | 96 |
| O=c1[nH]c(Cc2cc(F)ccc2-c2ccc(F)nc2)nc2c1cnn2C1CCC(F)(F)CC1 [Example 72-7] | 100 | 1 to 100 | – |
| COc1ncccc1-c1ccc(F)cc1Cc1nc2c(cnn2C2CCC(F)(F)CC2)c(=O)[nH]1 [Example 72-8] | 98 | 1 to 100 | – |
| O=c1[nH]c(Cc2cc(F)ccc2-c2cncc(F)c2)nc2c1cnn2C1CCC(F)(F)CC1 [Example 72-9] | 100 | 1 to 100 | – |
| O=c1[nH]c(Cc2ccc(F)cc2-c2ccncc2)nc2c1cnn2C1CCC(F)(F)CC1 [Example 72] | 97 | 101 to 1500 | – |
| Cc1ccc(-c2ccccc2Cc2nc3c(cnn3C3CCC(F)(F)CC3)c(=O)[nH]2)cn1 [Example 73] | 98 | 1 to 100 | – |
| O=c1[nH]c(Cc2ccccc2-c2ccnc(F)c2)nc2c1cnn2C1CCC(F)(F)CC1 [Example 74] | 98 | 1 to 100 | – |
| O=c1[nH]c(Cc2ccccc2-c2ccc(N3CCOCC3)nc2)nc2c1cnn2C1CCC(F)(F)CC1 [Example 75] | 101 | 1 to 100 | – |
| O=c1[nH]c(Cc2ccccc2-c2cncnc2)nc2c1cnn2C1CCC(F)(F)CC1 [Example 76] | 99 | 1 to 100 | – |
| O=c1[nH]c(Cc2ccccc2CCCN2CCOCC2)nc2c1cnn2C1CCC(F)(F)CC1 [Example 78] | 97 | 1 to 100 | – |
| CN(C)C(=O)Cc1ccccc1Cc1nc2c(cnn2C2CCC(F)(F)CC2)c(=O)[nH]1 [Example 79] | 95 | 101 to 1500 | – |
| CN1CCN(C(=O)Cc2ccccc2Cc2nc3c(cnn3C3CCC(F)(F)CC3)c(=O)[nH]2)CC1 [Example 80] | 91 | 101 to 1500 | – |
| O=C(Cc1ccccc1Cc1nc2c(cnn2C2CCC(F)(F)CC2)c(=O)[nH]1)N1CCCCC1 [Example 81] | 95 | 101 to 1500 | – |
| O=C(Cc1ccccc1Cc1nc2c(cnn2C2CCC(F)(F)CC2)c(=O)[nH]1)N1CCOCC1 [Example 82] | 91 | 101 to 1500 | – |
| O=c1[nH]c(Cc2ccccc2CCO)nc2c1cnn2C1CCC(F)(F)CC1 [Example 83] | 88 | 101 to 1500 | – |
| COC(=O)Cc1ccccc1Cc1nc2c(cnn2C2CCC(F)(F)CC2)c(=O)[nH]1 [Example 84] | 81 | 101 to 1500 | – |
| O=c1[nH]c(Cc2cc(F)ccc2-n2cccn2)nc2c1cnn2C1CCC(F)(F)CC1 [Example 89] | 98 | 1 to 100 | – |
| O=c1[nH]c(Cc2cc(F)ccc2-c2ccccn2)nc2c1cnn2C1CCC(F)(F)CC1 [Example 90] | 97 | 1 to 100 | – |
| O=c1[nH]c(Cc2ccccc2-c2ccccn2)nc2c1cnn2C1CCC(F)(F)CC1 [Example 91] | 95 | 1 to 100 | – |
| Cc1ccc(-c2ccccc2Cc2nc3c(cnn3C3CCC(F)(F)CC3)c(=O)[nH]2)o1 [Example 93] | 94 | 1 to 100 | – |
| Cn1cc(-c2cccnc2Cc2nc3c(cnn3C3CCC(F)(F)CC3)c(=O)[nH]2)cn1 [Example 94] | 98 | 1 to 100 | – |
| Cc1ncn(-c2ccccc2Cc2nc3c(cnn3C3CCC(F)(F)CC3)c(=O)[nH]2)n1 [Example 95-1] | 111 | 1 to 100 | – |
| O=c1[nH]c(Cc2ccccc2-n2cccn2)nc2c1cnn2C1CCC(F)(F)CC1 [Example 95] | 97 | 1 to 100 | – |
| O=c1[nH]c(Cc2ncccc2-n2cccn2)nc2c1cnn2C1CCC(F)(F)CC1 [Example 96] | 93 | 1 to 100 | – |
| Cc1nc(-c2ccccc2Cc2nc3c(cnn3C3CCC(F)(F)CC3)c(=O)[nH]2)no1 [Example 97] | 100 | 1 to 100 | – |
